In paper PMC9804910 (Chembiochem, 2022):

Columns and labels:
[1] = system: CT‐26 (mouse colon adenocarcinoma); experiment: Fluorometric cell viability assay (Resazurin), 2D monolayer; format: cell-based; conditions: for IC50: CT‐26, 48 h
Procedure: (§1) The first step toward the biological investigation of complexes 3–8 was the evaluation of cell viability in monolayer cultures of CT‐26 (mouse colon adenocarcinoma), PC‐3 (human prostate adenocarcinoma), and RPE‐1 (human normal retina pigmented epithelial) cell lines using a fluorometric cell viability assay with the Resazurin reagent. Cisplatin and 1 were tested in the same cell lines as positive and additional controls.
(§2) Cell cultures: The CT‐26 cell line was cultured in DMEM media (Gibco) supplemented with 10 % foetal calf serum (Gibco) and 1 % penicillin‐streptomycin antibiotic (Gibco). The PC‐3 cell line was cultured in F12‐K media (Gibco) supplemented with 10 % foetal calf serum (Gibco) and 1 % Penicillin‐Streptomycin antibiotic (Gibco). The RPE‐1 cell line was cultured in DMEM/F‐12 media (Gibco) supplemented with 10 % foetal calf serum and 1 % Penicillin‐Streptomycin antibiotic (Gibco). Cell lines were maintained in a humidified atmosphere at 37 °C with 5 % CO2.
(§3) Cytotoxicity assay using a 2D cellular model: The cytotoxicity of the tested Ru complexes was assessed by a fluorometric cell viability assay using Resazurin (Acros Organics). Briefly, cells were seeded in triplicate in 96‐well plates at a 4×10^3 cells/ well density in 100 μL. After 24 h, cells were treated with increasing concentrations of the ruthenium complexes and controls. Dilutions for complexes 3–8 were prepared as follows: 10 mM stock solution in DMSO was diluted to 100–0.01 μM with medium. After 48 h of incubation, the medium was removed, and 100 μL of complete medium containing resazurin (0.2 mg/mL final concentration) was added. After 4 h of incubation at 37 °C, the fluorescence signal of the resorufin product was read (ex 540 nm, em 590 nm) in an Infinite 200 PRO Microplate Reader from TECAN. IC50 values were then calculated using GraphPad Prism software.

[2] = system: PC‐3 (human prostate adenocarcinoma); experiment: as above; format: cell-based; conditions: PC‐3, 48 h
Procedure: as §1, §2, §3

[3] = system: RPE‐1 (human normal retina pigmented epithelial); experiment: as above; format: cell-based; conditions: RPE‐1, 48 h
Procedure: as §1, §2, §3

CT‐26 cells [4] = experiment: Mito stress test (Seahorse, oxygen consumption rate); format: cell-based, mouse; conditions: CT‐26, 24 h treatment; 1 (1 μM), 3 (5 μM), 4 (0.5 μM), 5 (10 μM), 6 (25 μM), 7 (10 μM), 8 (25 μM)
Procedure: To further study the mechanism of action of complexes 3–8, their influence on the cellular metabolism of CT‐26 cells was investigated. Figure 6 represents the Mito stress test profile after 24 h of treatment; the oxygen consumption rate (OCR) changes with specific electron‐transport chain inhibitors. Oligomycin (inhibitor of ATP synthase (complex V)), FCCP (uncoupling agent), antimycin‐A (complex III inhibitors), and rotenone (complex I inhibitor) were employed in this study. In general, both cationic compounds 4 and 7 affected the mitochondrial processes. It is evident from the low basal respiration and the inhibition of ATP production compared to untreated cells (orange dots) that the mitochondrial membrane of the cells treated with such complexes lost the capacity to restore the proton balance when treated with an uncoupling agent (FCCP). The maximal respiration (the OCR value when the mitochondrial membrane is uncoupled) and spare respiratory capacity (difference in the OCR values between maximal respiration and basal respiration) of the cells were reduced compared to those of untreated cells (Figure 6). […] The results with complex 4 are consistent with its measured large mitochondrial uptake (see above).
Metabolic studies: mito stress test: CT‐26 cells were seeded in Seahorse XFe 96‐ well plates at a density of 20 000 cells/well in 80 μL of the medium. After 24 h, the medium was replaced with fresh medium, and either complex 1 (1 μM), 3 (5 μM), 4 (0.5 μM), 5 (10 μM), 6 (25 μM), 7 (10 μM), or 8 (25 μM) was added. After 24 h of incubation, the regular medium was removed, and cells were washed three times using Seahorse base media and incubated in a non‐CO2 incubator at 37 °C for 1 h. A Mito stress assay was run using 1 μM oligomycin, 1 μM FCCP, and a mixture of 1 μM antimycin‐A/1 μM rotenone in ports A−C, respectively, using a Seahorse XFe96 extracellular flux analyser.

HeLa cells = system: HeLa cells; parameters: method as in PMID 32065454; conditions: cited from earlier work
CT‐26 cells [5] = experiment: ICP‐MS cellular uptake; format: cell-based, mouse
Procedure: The cellular uptake of the complexes 3–8 was then investigated in CT‐26 cells by determining the amount of Ru inside the cells using inductively coupled plasma mass spectrometry (ICP‐MS) after 2 h of incubation at 5 μM. […] This is most probably due to the higher lipophilicity of the DIP ligand compared to phen. […] In contrast, the neutral complexes with the DIP ligand (3 and 5) present a lower uptake (ca. 50 %) compared the phen analogues 6 and 8. This observation is rather counter‐intuitive since compounds 3 and 5 have a higher cytotoxicity than 6 and 8. The lower uptake of the DIP complexes 3 and 5 might be due to the lower solubility of these complexes in the cell culture medium. However, taken together, the uptake and cytotoxicity data imply that 3 and 5 have a higher specific cytotoxic activity compared to the phen analogues 6 and 8, reasonably attributable to their higher lipophilicity.
ICP‐MS cellular uptake studies: CT‐26 cells were seeded at a density of 1×10^6. The next day, cells were treated with 5 μM of the corresponding complex diluted in the cell culture medium from a 10 mM stock solution in DMSO. After 2 h, cells were collected, counted, and stored at −80 °C. ICP‐MS samples were prepared as follows: samples were digested using 70 % nitric acid (1 mL, 60 °C, overnight) and then further diluted 1 : 100 (1 % HCl solution in MQ water) analysed using ICP‐MS. All ICP‐MS measurements were performed on an Agilent 7900 Quadrupole ICP‐MS located at the Institut de Physique du Globe de Paris (France). The monitored isotopes are 99 and 101 Ru. Daily, before the analytical sequence, an indium internal‐standard was injected after inline mixing with the samples to correct for signal drift and matrix effects. A set of calibration standards was analysed to confirm and model (through simple linear regression) the linear relationship between signal and concentration. The model was then used to convert measured sample counts to concentrations. Reported uncertainties were calculated using error propagation equations and considering the combination of standard deviation on replicated consecutive signal acquisitions (n=3), internal‐standard ratio and blank subtraction. The non‐linear term (internal‐standard ratio) was linearized using a first‐order Taylor series expansion to simplify error propagation. The amount of metal detected in the cell samples was transformed from ppb to μg of metal. Data were subsequently normalized to the number of cells and expressed as μmol of metal/number of cells.

CT‐26 cells [6] = experiment: Cellular fractionation (mitochondria and nucleus isolation, Ru content); format: cell-based, mouse; conditions: CT‐26, 5 μM, 4 h
Procedure: Additionally, we choose the best candidate from the cytotoxicity experiments, namely [Ru(DIP)2(η^2‐acac)]Cl (4), to explore its cellular localisation. For this, we performed cellular fractionation experiments to ascertain in which organelle it localizes.
Sample preparation for cellular fractionation: CT‐26 cells were seeded in three 15 cm^2 cell culture dishes and cells were 90 % confluent on the day of treatment. On the day of treatment, cells were incubated with the target complex at a concentration of 5 μM for 4 h, then the medium was removed and the cells were washed, collected, and counted. After re‐suspension in cold PBS, the organelles were isolated by using different protocols (one cell culture dish per isolation was used).
Mitochondria and nucleus isolation : To isolate mitochondria, a Mitochondria Isolation Kit (Cat. Nr: MITOISO2, SigmaAldrich) and Nucleus Isolation Kit (NUC‐101) were used according to the manufacturer procedure for the isolation of mitochondria via homogenization method.

[7] = Stability in human plasma (UV-Vis and HPLC); format: in vitro ADME; conditions: 37 °C
Procedure: The biological activity of anticancer drugs candidates is strongly influenced by their stability in DMSO, medium cell culture, and human plasma. For this reason, we performed stability studies of complexes 3–8 at 37 °C in DMSO and DMEM medium (Gibco) (Supporting Information Figures S1 ‐ S2). […] Finally, the stability of the compounds was investigated by incubating them in human plasma at 37 °C for 48 h, followed by UV‐Vis and HPLC analysis. […] After 48 h, only 15 % of the complex was still intact, as observed by HPLC (Supporting Information Figure S5).
Stock solutions of each complex (2 mM) and caffeine (2 mM) were prepared in dimethyl sulfoxide. 50 μL of both stock solutions (complex and caffeine) were added to 400 μL of human plasma, achieving 500 μL. The resulting solutions were incubated upon continuous gentle shaking (ca. 300 rpm) for 48 h at 37 °C. After this time, the incubation was ended by adding 1 mL of methanol. The mixture was centrifuged for 45 min at 3000 rpm and 4 °C. The solution was filtered through a 0.2 μm membrane filter and submitted to HPLC analysis, that were carried out on a Jupiter Proteo column (250×4.6 mm, 4 μm, flow rate: 1 mL/min). The solvents (HPLC grade) were Millipore water (solvent A) and acetonitrile (solvent B). […] The flow rate was 1 mL min^−1, and the chromatogram was detected at 215 nm.

different tumour cells = system: different tumour cells; parameters: method as in PMID 17199281; conditions: cited from earlier work
[8] = system: several cancer cell lines; parameters: method as in PMID 32319768; conditions: cited from earlier work
cancer cells = system: cancer cells; parameters: method as in PMID 25313823; conditions: 2 h incubation; cited from earlier work

| Compound | IC50 [1] [µM] | IC50 [2] [µM] | IC50 [3] [µM] | further results |
| --- | --- | --- | --- | --- |
| Cc1occc(=O)c1[O-].F[P-](F)(F)(F)(F)F.[Ru+2].c1ccc(-c2ccnc3c2ccc2c(-c4ccccc4)ccnc23)cc1.c1ccc(-c2ccnc3c2ccc2c(-c4ccccc4)ccnc23)cc1 [Compound 1, [Ru(DIP)2(mlt)](PF6), reference compound] | 0.37 ± 0.12 | 1.84 ± 0.23 | 0.67 ± 0.14 | effect on mitochondrial respiration (basal respiration, OCR profile) vs untreated cells (CT‐26 cells [4]): severe impairment of mitochondrial respiration; subcellular accumulation (HeLa cells): accumulate more in the nucleus than in mitochondria |
| CC(=O)C=C(C)[O-].[Cl-].[Ru+2].c1ccc(-c2ccnc3c2ccc2c(-c4ccccc4)ccnc23)cc1.c1ccc(-c2ccnc3c2ccc2c(-c4ccccc4)ccnc23)cc1 [Compound 4, [Ru(DIP)2(η^2‐acac)]Cl] | 0.41 ± 0.1 | 0.62 ± 0.19 | 0.5 ± 0.12 | selectivity towards CT‐26 and PC‐3 cancer cell lines compared to healthy cell line RPE‐1 ([1]; from IC50 values, 48 h): no selectivity; cellular uptake compared to neutral DIP complexes 3 and 5 (CT‐26 cells [5]; CT‐26): at least three times larger; cellular uptake compared to phen counterpart 7 (CT‐26 cells [5]; CT‐26, 5 μM, 2 h): almost three times larger; cellular uptake compared to reference complex 1 (CT‐26 cells [5]; CT‐26, 5 μM, 2 h): ca. three times larger; cellular uptake (amount of Ru inside the cells) (CT‐26 cells [5]; CT‐26, 5 μM, 2 h incubation): most significant uptake; fraction detected in the nucleus (of the total amount of Ru) (CT‐26 cells [6]): ca. 10%; localization in mitochondria (of the total amount of Ru) (CT‐26 cells [6]): ca. 50%; effect on mitochondrial respiration (basal respiration, OCR profile) vs untreated cells (CT‐26 cells [4]): severe impairment of mitochondrial respiration |
| [Ru+2].c1ccc(-c2ccnc3c2ccc2c(-c4ccccc4)ccnc23)cc1.c1ccc(-c2ccnc3c2ccc2c(-c4ccccc4)ccnc23)cc1.c1ccc2nc3c4cccnc4c4ncccc4c3nc2c1 [[Ru(DIP)2(dppz)]^2+] |  |  |  | inhibition against tumour cells (different tumour cells): low inhibition |
| N.N.[Cl][Pt][Cl] [cisplatin, reference compound] | 1.94 ± 0.72 | 10.3 ± 1.14 | 20.1 ± 3.91 |  |
| [Ru(DIP)2(sq)](PF6) [Compound 2] |  |  |  | cytotoxicity [8]: nanomolar concentration range |
| [Ru(bpy)(phpy)(dppz)]^+ |  |  |  | complex accumulated in nuclei (cancer cells): ~90% |

More lines, main results first:

| IC50 [1] [µM] | IC50 [2] [µM] | Compound | IC50 [3] [µM] | further results |
| --- | --- | --- | --- | --- |
| 24.1 ± 2.5 | 21.1 ± 2.29 | O=C([O-])C(=O)[O-].[Ru+2].c1ccc(-c2ccnc3c2ccc2c(-c4ccccc4)ccnc23)cc1.c1ccc(-c2ccnc3c2ccc2c(-c4ccccc4)ccnc23)cc1 [Compound 5, [Ru(DIP)2(η^2‐ox)]] | 14.5 ± 3 | lower uptake compared to the phen analogues 6 and 8 (CT‐26 cells [5]; CT‐26, 5 μM, 2 h): ca. 50% |
| > 100 | > 100 | O=C([O-])CC(=O)[O-].[Ru+2].c1cnc2c(c1)ccc1cccnc12.c1cnc2c(c1)ccc1cccnc12 [Compound 6, [Ru(phen)2(η^2‐mal)]] | > 100 | stability in human plasma (UV‐vis spectra and HPLC chromatograms before and after incubation) ([7]; 48 h): chemical transformation; complex still intact (HPLC) ([7]; after 48 h): 15% |
| 10.3 ± 0.74 | > 100 | CC(=O)C=C(C)[O-].[Cl-].[Ru+2].c1cnc2c(c1)ccc1cccnc12.c1cnc2c(c1)ccc1cccnc12 [Compound 7, [Ru(phen)2(η^2‐acac)]Cl] | > 100 | effect on mitochondrial respiration (basal respiration, OCR profile) vs untreated cells (CT‐26 cells [4]): severe impairment of mitochondrial respiration |
| > 100 | > 100 | O=C([O-])C(=O)[O-].[Ru+2].c1cnc2c(c1)ccc1cccnc12.c1cnc2c(c1)ccc1cccnc12 [Compound 8, [Ru(phen)2(η^2‐ox)]] | > 100 |  |
| 5.63 ± 0.34 | 4.92 ± 0.33 | [Ru(DIP)2(η^2‐mal)] [Compound 3] | 5 ± 0.7 | lower uptake compared to the phen analogues 6 and 8 (CT‐26 cells [5]; CT‐26, 5 μM, 2 h): ca. 50% |
